Measurements published in patent US7544467B2, “Method for the identification of compounds capable of activating latent human immunodeficiency virus (HIV)” (The J. David Gladstone Institutes, priority 2001, dated 2009).

Experiments:
[1] = tested on: latent HIV promoter (LTR-Tat-IRES-GFP vector) in Jurkat-derived cells; experiment: Reactivation of latent LTR-Tat-IRES-GFP vector in Jurkat cells/clones, GFP by flow cytometry; assay type: cell-based; conditions: for ability to reactivate latent HIV expression (GFP-positive cells and mean fluorescence intensity): clones 82, A1, A7, A10, 10 nM TPA, 10 ng/ml TNF-α, 5 μg/ml PHA, 5 μg/ml anti-CD3, 400 nM TSA, 5 μM aza-dC 48 h
Protocol: To obtain a random library of clones containing the vector LTR-Tat-IRES-GFP integrated, Jurkat cells were infected at an MOI (multiplicity of infection) of 0.1 followed by serial dilution and plating in 96-well plates. Individual clones obtained after 3 weeks were analyzed by flow cytometry for GFP expression. For the purification of latently infected cells, Jurkat cells were infected with the LTR-Tat-IRES-GFP viral stock at an MOI of 0.1 and kept in culture for at least 96 h. GFP-negative (GFP^−) and GFP-positive (GFP^+) cells were separated by fluorescence activated cell sorting (FACS) and further cultured. One week later, GFP^− cells were incubated with 10 nM TPA or 10 ng/ml TNF-α for 17 h.
Jurkat cells were grown in RPMI 1640 medium (Mediatech Cellgro, Herndon, Va.) supplemented with 10% fetal bovine serum, 100 U/ml of penicillin, 100 μg/ml of streptomycin, and 2 mM L-glutamine at 37° C. under a 95% air/5% CO2 atmosphere. Peripheral blood mononuclear cells (PBMCs) were cultivated in the same medium supplemented with 100 U/ml human interleukin (hIL)-2 and were phytohemagglutinin (PHA)-stimulated (5 μg/ml) once every two weeks. 293T cells were grown under the same conditions as Jurkat cells in Dulbecco's modification of Eagle's medium (Mediatech Cellgro, Herndon, Va.). 293T cells were routinely transfected with calcium phosphate. Jurkat cells (10^7 cells/0.4 ml serum-free medium) were electroporated in 0.4-cm gap cuvettes at 250 V and […] (Gene Pulser II, Biorad, Hercules, Calif.). Plasmid DNA for transfections was purified with the Qiagen Plasmid Maxi kit, followed by phenol extraction and ethanol precipitation. To test the HIV promoter inducibility, Jurkat-derived clones were incubated for 17 h with 10 nM tetradecanoyl phorbol acetate (TPA), 10 ng/ml TNF-α, 5 μg/ml PHA, 1 μM ionomycin, 5 μg/ml anti-CD3 antibody, 400 nM Trichostatin A (TSA). Incubations with 5 μM aza-dC lasted for 48 h.
(§1) Cells were washed in PBS and resuspended in PBS containing 1% paraformaldehyde. GFP fluorescence was measured with a FACScalibur machine (Becton Dickinson, San Jose, Calif.). A two narameter analysis to distinguish GFP-derived fluorescence from background fluorescence was used: CFP was measured in FL1 and cellular autofluorescence was monitored in FL2. Electronic compensation was applied during analysis. Analysis was gated on live cells according to forward and side scatter. A gate (R2) containing GFP-positive cells was drawn compared to an uninfected control, and the data shown refer to the percentage of cells in R2 or mean fluorescence intensity (MFI) of those cells. Results shown throughout the manuscript are representative three independent experiments, except when libraries of clones were analyzed. Cell sorting was carried out with a FACSVantage (Becton Dickinson, San Jose, Calif.).

[2] = tested on: HIV transcription in latent cell lines; experiment: HIV-specific mRNA measurement by TaqMan PCR in latent cell lines; assay type: cell-based; conditions: clone H2; +TNF-α
Protocol: RNA was isolated using TRIzol (Invitrogen) followed by digestion with RQ1 DNase (Promega). First strand cDNA was synthesized using Superscript II (Invitrogen). Taqman PCR was performed on an ABIprism 7700 detector using the following primer/probe set: primer 1: 5′-[…]-3′ (SEQ ID NO:21); primer 2: 5′-[…]-3′ (SEQ ID NO:22); probe 5′-CTGGTAACTAGAGATCCC-3′ (SEQ LD NO:23). The GAPDH primer/probe set was purchased from Applied Biosystems.
FIG. 1A-C. Enrichment and purification of HIV-latently infected cells by FACS. (A) A schematic representation of our enrichment protocol is shown. See text for details. The percentage of GFP-positive cells obtained after infection (4%) or after TNF-α treatment of GFP-cells (0.06%) is shown. Similar data were obtained with TPA. (B) Clonal cell lines isolated using the procedure described above were analyzed for CFP expression under basal and stimulated conditions (24 hr treatment with TNF-α). (C) mRNA levels were measured for HIV and for GAPDH using TaqMan PCR in untreated and TNF-α-treated cell lines. Results are expressed as a percentage of mRNA levels measured in Jurkat cells acutely infected with HIVNL4-3 (day 6 post-infection). Clone A72 is infected with an LTR-CFP construct (Jordan et al. (2001, supra), clone H2 is infected with the LTR-Tat-IRS-GFP vector while clones F11 and G10 are infected with HIV-R7/E^−/GFP.

[3] = tested on: latent full-length HIV provirus (HIV-R7/E-/GFP) in Jurkat clones; experiment: HIV-specific p24 in culture supernatants of latent HIV-R7/E-/GFP clones; assay type: cell-based; conditions: culture supernatant; for p24 (pg/ml): + TNF-α
Text: When the culture supernatants of the same clones were examined for HIV-specific p24 expression, no or low picogram amounts could be detected under basal conditions (Table I).

[4] = tested on: latent full-length HIV provirus (HIV-R7/E-/GFP) in Jurkat cells; experiment: GFP expression in Jurkat cells/clones latently infected with full-length HIV-R7/E-/GFP, flow cytometry; assay type: cell-based; conditions: for GFP Signal (MFI) / GFP-Positive (%): + TNF-α
Protocol: as §1
The HIV molecular clone (HIV-R7/E^−1/GFP) was constructed by introducing a frameshift mutation in the env gene (by filling-in NdeI site with T4 polymerase) in the backbone of HIV-R7/3/GCF. Bieniasz and Cullen (2000) J. Virol. 74:9868-9877.
To confirm that HIV Latency can be established in the context of a full length provirus, we used a recombinant HIV molecular clone containing the GFP open reading frame in place of the Nef gene (Bieniasz and Cullen (2000) J. Virol. 74:9868-9877) (HIV-R7/E^−/GFP) (FIG. 5A). To restrict our analysis to a single infection cycle, the env gene was suppressed by introduction of a frameshift mutation. […]. We infected a culture of the lymphocytic cell line Jurkat with viral particles containing this HIV genome and used differential fluorescence-activated cell sorting based on GFP expression to isolate GFP-negative cells by FACS 4 days after infection (FIG. 5B). Based on our previous experiments, we predicted that this population harbored both uninfected cells and cells with transcriptionally silenced proviruses. To activate HIV expression, we treated this population with TNF-α and observed that a small fraction of the cell population (1.9%) became positive. These activated cells were purified by FACS based on GFP expression levels (FIG. 5B). These cells were both grown as a group and individually sorted for further characterization.
FIG. 5. Establishment of latently infected cell lines with a full-length HIV provirus. (A) genome organization of a molecular clone of HIV encoding GFP and containing a frameshift mutation in env. (B) Schematic representation of protocol for enrichment of latently-infected cells after infection of Jurkat cells with HIV-R7/E^−/GFP) (see text for detail). (C) Clonal cell lines isolated using the procedure described above were analyzed for GFP expression under basal and stimulated conditions (24 hr treatment with TNF-α).

[5] = tested on: latent full-length HIV provirus (HIV-R7/E-/GFP) in Jurkat clones; experiment: Western blotting of HIV-specific proteins in latent HIV-R7/E-/GFP clones; assay type: cell-based; conditions: several clones; particularly gag p55 precursor
Text: Levels of viral mRNA after activation were similar to those measured after a productive HIV infection (compare clones F11 and G10 with NL4-3, FIG. 1C).

[6] = tested on: latent HIV-based retroviral vector in cell line; experiment: Screen of small molecule library on cell line containing a latent HIV-based retroviral vector, GFP expression; conditions: different concentrations; FIG. 7
Text: We screened a library of 6,000 small molecules (library purchased from Chembridge, San Diego) using one of the cell lines containing a latent HIV-based retroviral vector. Viral expression was monitored by GFP expression, as described above. […] The results of a typical induction experiment in which we measured CFP expression in response to different concentrations of the two small molecules (Hit 1 and Hit2) are shown in FIG. 7. The structures of three representative active agents are shown below.

**Q.** With tetradecanoyl phorbol acetate [TPA] as the molecule, how does the “GFP expression of individual latent clones after treatment” value ([1]; clonal cell lines 4 weeks after isolation) read?
**A.** The value was “all clones were activated”.

**Q.** What about the “ability to reactivate latent HIV expression (GFP-positive cells and mean fluorescence intensity)” value (shortened to “ability”) [1] of the same molecule?
**A.** Its value is “strongest inducer tested”.

**Q.** What does the source list for tumor necrosis factor alpha [TNF-α]?
**A.** HIV mRNA levels, activated versus basal conditions [2]: activation of HIV transcription; p24 (pg/ml) ([3]; Clone 6.3): 10,100 ± 4,573 pg/ml; p24 (pg/ml) ([3]; Clone 8.4): 32,967 ± 10,537 pg/ml; p24 (pg/ml) ([3]; Clone 9.2): 41,067 ± 9,100 pg/ml; p24 (pg/ml) ([3]; Clone 10.6): 85,500 ± 5,981 pg/ml; p24 (pg/ml) ([3]; Clone 15.4): 6,066 ± 1,960 pg/ml; increase in p24 measurement versus basal conditions ([3]; several representative clones): greater than a thousand-fold increase; GFP Signal (MFI) ([4]; Clone 6.3): 135 ± 43 MFI; GFP-Positive (%) ([4]; Clone 6.3): 27 ± 9%; GFP Signal (MFI) ([4]; Clone 8.4): 488 ± 74 MFI; GFP-Positive (%) ([4]; Clone 8.4): 77 ± 6%; GFP Signal (MFI) ([4]; Clone 9.2): 522 ± 61 MFI; GFP-Positive (%) ([4]; Clone 9.2): 75 ± 7%; GFP Signal (MFI) ([4]; Clone 10.6): 645 ± 45 MFI; GFP-Positive (%) ([4]; Clone 10.6): 96 ± 1%; GFP Signal (MFI) ([4]; Clone 15.4): 188 ± 34 MFI; GFP-Positive (%) ([4]; Clone 15.4): 46 ± 6%; fraction of the cell population that became GFP positive ([4]; Jurkat infected with HIV-R7/E-/GFP, sorted GFP-negative population): 1.9%; HIV expression (fraction of GFP positive cells and mean fluorescence intensity) in individual clones ([4]; individual HIV-R7/E-/GFP clones): HIV expression was increased in all clones; HIV protein expression by western blotting [5]: dramatic increase in HIV protein expression; ability to reactivate latent HIV expression (GFP-positive cells and mean fluorescence intensity) [1]: induced HIV expression

**Q.** For `CC(/C=C/C(=O)NO)=C\[C@@H](C)C(=O)c1ccc(N(C)C)cc1` [Trichostatin A], which “ability” value [1] is on record?
**A.** Its value is “activated expression but to a lesser extent than NT-κB activators and in only some cell lines”.

**Q.** For `Nc1ncn([C@H]2C[C@H](O)[C@@H](CO)O2)c(=O)n1` [aza-dC, 5-axa-2-deoxycytidine], which “ability” value [1] is on record?
**A.** Its value is “little effect”.

**Q.** Which “induction of HIV expression as measured by increased GFP expression” value [6] does the source give for `COc1cc(/C=N/NC(=O)c2cc(-c3ccccc3)n[nH]2)cc(OC)c1O` [Hit 1] here?
**A.** Its value is “reproducibly lead to an induction of HIV expression”.

**Q.** Which “ability” value [1] does the source give for phytohemagglutinin [PHA] here?
**A.** The value was “induced HIV expression”.

**Q.** Which “induction of HIV expression as measured by increased GFP expression” value [6] does the source give for `CC1(C)Cc2ccccc2C(NNC(=O)c2ccccn2)=N1` [Hit2] here?
**A.** Its value is “reproducibly lead to an induction of HIV expression”.
